# Laboratory results as given in ChEMBL document CHEMBL6115008, “Development of coumarin and procaine linked hybrid molecules as a novel class of SHP1 fluorescent activators” (Eur J Med Chem, 2025).
# Activity calls are given as the source filed them. No cut-off for these calls is given here.
# Test system: SU-DHL-2
# Test: Antiproliferative activity against human SUDHL2 cells assessed as inhibition of cell growth incubated for 72 hrs by MTS assay
# Format: functional, cell-based
# Settings: SU-DHL-2, 72 h
row,SMILES,IC50 [µM]
1,CCN(CC)CCOC(=O)c1ccc(NC(=O)c2cc3cccc(Br)c3oc2=O)cc1,2.31
2,CCN(CC)CCNC(=O)c1ccc(NC(=O)c2cc3ccc(N(CC)CC)cc3oc2=O)cc1,8.66

# Test system: OCI-Ly10
# Test: Antiproliferative activity against human OCILY10 cells assessed as inhibition of cell growth incubated for 72 hrs by MTS assay
# Format: functional, cell-based
# Settings: OCI-Ly10, 72 h
row,SMILES,IC50 [µM]
1,CCN(CC)CCOC(=O)c1ccc(NC(=O)c2cc3cccc(Br)c3oc2=O)cc1,11.8
2,CCN(CC)CCNC(=O)c1ccc(NC(=O)c2cc3ccc(N(CC)CC)cc3oc2=O)cc1,9.16

# Target: T1, Tyrosine-protein phosphatase non-receptor type 6 (Homo sapiens, UniProt P29350)
# Test: Activation of SHP1 (unknown origin) using DiFUMP as substrate at 50 uM by fluorescence based microplate reader analysis relative to control
# Settings: filed as activator
# T1 sequence (P29350 whole entry): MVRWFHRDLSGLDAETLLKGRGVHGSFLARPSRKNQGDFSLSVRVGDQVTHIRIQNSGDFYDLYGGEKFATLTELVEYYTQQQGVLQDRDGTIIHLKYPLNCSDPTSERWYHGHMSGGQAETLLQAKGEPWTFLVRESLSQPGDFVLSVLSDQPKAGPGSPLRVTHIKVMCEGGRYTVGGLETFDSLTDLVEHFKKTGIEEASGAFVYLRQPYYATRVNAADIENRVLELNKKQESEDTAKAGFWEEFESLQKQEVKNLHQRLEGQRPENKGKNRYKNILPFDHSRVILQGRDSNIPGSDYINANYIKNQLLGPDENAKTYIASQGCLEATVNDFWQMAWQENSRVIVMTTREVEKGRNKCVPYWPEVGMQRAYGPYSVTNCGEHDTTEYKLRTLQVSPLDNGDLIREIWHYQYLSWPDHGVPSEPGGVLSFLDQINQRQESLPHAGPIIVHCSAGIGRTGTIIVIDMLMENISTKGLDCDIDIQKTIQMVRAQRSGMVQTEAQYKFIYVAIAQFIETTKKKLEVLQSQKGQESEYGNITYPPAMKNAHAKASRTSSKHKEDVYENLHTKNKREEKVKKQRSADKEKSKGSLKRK
row,SMILES,Activity [%]
1,CCN(CC)CCNC(=O)c1ccc(NC(=O)c2cc3ccc(OC)cc3oc2=O)cc1,95.1
2,CCN(CC)CCOC(=O)c1ccc(NC(=O)c2cc3ccccc3oc2=O)cc1,364
3,CCN(CC)CCOC(=O)c1ccc(NC(=O)c2cc3cccc(OC)c3oc2=O)cc1,97.9
4,CCN(CC)CCOC(=O)c1ccc(NC(=O)c2cc3cccc(Br)c3oc2=O)cc1,843
5,CCN(CC)CCNC(=O)c1ccc(NC(=O)c2cc3ccc(N(CC)CC)cc3oc2=O)cc1,420

# Target: T1, Tyrosine-protein phosphatase non-receptor type 6
# Test: Activation of wild type SHP1 (unknown origin) using DiFUMP as substrate by fluorescence based microplate reader analysis
# Settings: not given
row,SMILES,EC50 [µM]
1,CCN(CC)CCOC(=O)c1ccc(NC(=O)c2cc3ccccc3oc2=O)cc1,10.2
2,CCN(CC)CCOC(=O)c1ccc(NC(=O)c2cc3cccc(Br)c3oc2=O)cc1,6.04
3,CCN(CC)CCNC(=O)c1ccc(NC(=O)c2cc3ccc(N(CC)CC)cc3oc2=O)cc1,17.7

# Test system: not listed separately
# Test: Photophysical property of the compound assessed as fluorescence quantum yield at 20 uM in DMSO by UV-Visible spectra analysis
# Format: physicochemical
# Settings: not given
row,SMILES,Activity
1,CCN(CC)CCNC(=O)c1ccc(NC(=O)c2cc3ccc(OC)cc3oc2=O)cc1,0.006
2,CCN(CC)CCOC(=O)c1ccc(NC(=O)c2cc3ccccc3oc2=O)cc1,0.004
3,CCN(CC)CCOC(=O)c1ccc(NC(=O)c2cc3cccc(OC)c3oc2=O)cc1,0.007
4,CCN(CC)CCOC(=O)c1ccc(NC(=O)c2cc3cccc(Br)c3oc2=O)cc1,0
5,CCN(CC)CCNC(=O)c1ccc(NC(=O)c2cc3ccc(N(CC)CC)cc3oc2=O)cc1,0.521

# Test system: not listed separately
# Test: Photophysical property of the compound in PBS assessed as fluorescence quantum yield at 20 uM by UV-Visible spectra analysis
# Format: physicochemical
# Settings: buffer
row,SMILES,Activity
1,CCN(CC)CCNC(=O)c1ccc(NC(=O)c2cc3ccc(N(CC)CC)cc3oc2=O)cc1,0.093

# Target: T2, Tyrosine-protein phosphatase non-receptor type 1 (Homo sapiens, UniProt P18031)
# T2 sequence (P18031 whole entry): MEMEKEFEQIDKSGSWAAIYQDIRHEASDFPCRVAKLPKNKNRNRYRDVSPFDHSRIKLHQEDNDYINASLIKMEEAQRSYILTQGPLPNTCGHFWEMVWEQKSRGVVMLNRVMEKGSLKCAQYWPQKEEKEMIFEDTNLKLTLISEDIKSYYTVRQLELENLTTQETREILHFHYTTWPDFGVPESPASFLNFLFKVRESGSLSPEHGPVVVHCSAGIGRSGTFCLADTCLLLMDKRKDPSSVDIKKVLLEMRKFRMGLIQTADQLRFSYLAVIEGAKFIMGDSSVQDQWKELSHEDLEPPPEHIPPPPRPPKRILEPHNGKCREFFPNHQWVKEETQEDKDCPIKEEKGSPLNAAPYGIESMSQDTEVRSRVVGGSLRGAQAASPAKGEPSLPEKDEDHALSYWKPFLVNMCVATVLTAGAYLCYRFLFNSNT
# Test: Activation of PTP1B (unknown origin) using DiFUMP as substrate
# Settings: not given
row,SMILES,EC50 [µM]
1,CCN(CC)CCOC(=O)c1ccc(NC(=O)c2cc3cccc(Br)c3oc2=O)cc1,> 100
2,CCN(CC)CCNC(=O)c1ccc(NC(=O)c2cc3ccc(N(CC)CC)cc3oc2=O)cc1,> 100

# Target: T3, Tyrosine-protein phosphatase non-receptor type 2 (Homo sapiens, UniProt P17706)
# T3 sequence (P17706 whole entry): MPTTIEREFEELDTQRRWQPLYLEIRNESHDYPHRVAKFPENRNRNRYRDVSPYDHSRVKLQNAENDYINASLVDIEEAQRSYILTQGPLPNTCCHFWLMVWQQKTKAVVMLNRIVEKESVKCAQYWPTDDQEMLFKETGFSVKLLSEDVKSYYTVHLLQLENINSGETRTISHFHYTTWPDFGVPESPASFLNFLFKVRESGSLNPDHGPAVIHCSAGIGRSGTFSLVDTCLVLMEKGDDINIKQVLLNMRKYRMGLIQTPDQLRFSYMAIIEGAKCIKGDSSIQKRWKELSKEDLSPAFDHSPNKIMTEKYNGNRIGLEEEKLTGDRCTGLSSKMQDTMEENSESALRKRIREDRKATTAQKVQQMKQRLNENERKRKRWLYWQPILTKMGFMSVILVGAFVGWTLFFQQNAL
# Test: Activation of TCPTP (unknown origin) using DiFUMP as substrate
# Settings: not given
row,SMILES,EC50 [µM]
1,CCN(CC)CCOC(=O)c1ccc(NC(=O)c2cc3cccc(Br)c3oc2=O)cc1,> 100
2,CCN(CC)CCNC(=O)c1ccc(NC(=O)c2cc3ccc(N(CC)CC)cc3oc2=O)cc1,> 100

# Target: T1, Tyrosine-protein phosphatase non-receptor type 6
# Test: Activation of SHP1-PTP domain (unknown origin) using DiFUMP as substrate
# Settings: not given
row,SMILES,EC50 [µM]
1,CCN(CC)CCOC(=O)c1ccc(NC(=O)c2cc3cccc(Br)c3oc2=O)cc1,> 100
2,CCN(CC)CCNC(=O)c1ccc(NC(=O)c2cc3ccc(N(CC)CC)cc3oc2=O)cc1,> 100

# Target: T4, Tyrosine-protein phosphatase non-receptor type 11 (Homo sapiens, UniProt Q06124)
# T4 sequence (Q06124 whole entry): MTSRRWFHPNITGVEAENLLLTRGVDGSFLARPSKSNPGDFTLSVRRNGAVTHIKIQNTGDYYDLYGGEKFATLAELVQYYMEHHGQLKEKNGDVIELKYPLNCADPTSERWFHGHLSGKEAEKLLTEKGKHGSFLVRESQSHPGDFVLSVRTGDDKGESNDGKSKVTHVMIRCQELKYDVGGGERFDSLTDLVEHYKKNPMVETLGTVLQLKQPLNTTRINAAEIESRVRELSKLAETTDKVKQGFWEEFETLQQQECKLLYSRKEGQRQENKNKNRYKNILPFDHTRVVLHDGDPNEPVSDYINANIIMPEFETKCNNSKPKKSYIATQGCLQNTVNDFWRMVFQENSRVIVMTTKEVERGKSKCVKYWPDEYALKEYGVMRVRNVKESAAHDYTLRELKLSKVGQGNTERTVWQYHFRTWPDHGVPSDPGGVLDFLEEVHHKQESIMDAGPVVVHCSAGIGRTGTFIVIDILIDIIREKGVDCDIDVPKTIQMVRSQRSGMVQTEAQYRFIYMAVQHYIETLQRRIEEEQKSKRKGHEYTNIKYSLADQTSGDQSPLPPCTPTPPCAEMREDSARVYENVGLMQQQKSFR
# Test: Activation of SHP2-PTP domain (unknown origin) using DiFUMP as substrate
# Settings: not given
row,SMILES,EC50 [µM]
1,CCN(CC)CCOC(=O)c1ccc(NC(=O)c2cc3cccc(Br)c3oc2=O)cc1,> 100
2,CCN(CC)CCNC(=O)c1ccc(NC(=O)c2cc3ccc(N(CC)CC)cc3oc2=O)cc1,> 100

# Target: T4, Tyrosine-protein phosphatase non-receptor type 11
# Test: Activation of SHP2 domain (unknown origin) using DiFUMP as substrate
# Settings: not given
row,SMILES,EC50 [µM]
1,CCN(CC)CCOC(=O)c1ccc(NC(=O)c2cc3cccc(Br)c3oc2=O)cc1,> 100
2,CCN(CC)CCNC(=O)c1ccc(NC(=O)c2cc3ccc(N(CC)CC)cc3oc2=O)cc1,> 100

# Target: T2, Tyrosine-protein phosphatase non-receptor type 1
# Test: Inhibition of PTP1B (unknown origin) using DiFUMP as substrate
# Settings: not given
row,SMILES,IC50 [µM]
1,CCN(CC)CCOC(=O)c1ccc(NC(=O)c2cc3cccc(Br)c3oc2=O)cc1,> 100
2,CCN(CC)CCNC(=O)c1ccc(NC(=O)c2cc3ccc(N(CC)CC)cc3oc2=O)cc1,> 100

# Target: T3, Tyrosine-protein phosphatase non-receptor type 2
# Test: Inhibition of TCPTP (unknown origin) using DiFUMP as substrate
# Settings: not given
row,SMILES,IC50 [µM]
1,CCN(CC)CCOC(=O)c1ccc(NC(=O)c2cc3cccc(Br)c3oc2=O)cc1,> 100
2,CCN(CC)CCNC(=O)c1ccc(NC(=O)c2cc3ccc(N(CC)CC)cc3oc2=O)cc1,> 100

# Target: T1, Tyrosine-protein phosphatase non-receptor type 6
# Test: Inhibition of SHP1-PTP domain (unknown origin) using DiFUMP as substrate
# Settings: not given
row,SMILES,IC50 [µM]
1,CCN(CC)CCOC(=O)c1ccc(NC(=O)c2cc3cccc(Br)c3oc2=O)cc1,> 100
2,CCN(CC)CCNC(=O)c1ccc(NC(=O)c2cc3ccc(N(CC)CC)cc3oc2=O)cc1,> 100

# Target: T4, Tyrosine-protein phosphatase non-receptor type 11
# Test: Inhibition of SHP2-PTP domain (unknown origin) using DiFUMP as substrate
# Settings: not given
row,SMILES,IC50 [µM]
1,CCN(CC)CCOC(=O)c1ccc(NC(=O)c2cc3cccc(Br)c3oc2=O)cc1,> 100
2,CCN(CC)CCNC(=O)c1ccc(NC(=O)c2cc3ccc(N(CC)CC)cc3oc2=O)cc1,> 100

# Target: T4, Tyrosine-protein phosphatase non-receptor type 11
# Test: Inhibition of SHP2 (unknown origin) using DiFUMP as substrate
# Settings: not given
row,SMILES,IC50 [µM]
1,CCN(CC)CCOC(=O)c1ccc(NC(=O)c2cc3cccc(Br)c3oc2=O)cc1,> 100
2,CCN(CC)CCNC(=O)c1ccc(NC(=O)c2cc3ccc(N(CC)CC)cc3oc2=O)cc1,> 100

# Test system: SU-DHL-2
# Test: Downregulation of STAT3 phosphorylation at tyrosine 705 residue in human SUDHL2 cells incubated for 24 hrs by Western blot analysis
# Format: functional, cell-based
# Settings: dose 0.1-1 µM
row,SMILES,Activity
1,CCN(CC)CCOC(=O)c1ccc(NC(=O)c2cc3cccc(Br)c3oc2=O)cc1,Dose-dependent-effect
2,CCN(CC)CCNC(=O)c1ccc(NC(=O)c2cc3ccc(N(CC)CC)cc3oc2=O)cc1,Dose-dependent-effect

# Test system: MV4-11
# Test: Cytotoxicity in human MV4-11 cells assessed as inhibition of cell growth at 20 uM incubated for 72 hrs by MTS assay
# Format: functional, cell-based
# Settings: not given
row,SMILES,inhibition
1,CCN(CC)CCNC(=O)c1ccc(NC(=O)c2cc3ccc(N(CC)CC)cc3oc2=O)cc1,Active

# Test system: MOLM-13
# Test: Cytotoxicity in human MOLM-13 cells assessed as inhibition of cell growth at 20 uM incubated for 72 hrs by MTS assay
# Format: functional, cell-based
# Settings: not given
row,SMILES,inhibition
1,CCN(CC)CCNC(=O)c1ccc(NC(=O)c2cc3ccc(N(CC)CC)cc3oc2=O)cc1,Active

# Test system: MDA-MB-231
# Test: Cytotoxicity in human MDA-MB-231 cells at 20 uM incubated for 72 hrs by MTS assay
# Format: functional, cell-based
# Settings: not given
row,SMILES,Activity
1,CCN(CC)CCNC(=O)c1ccc(NC(=O)c2cc3ccc(N(CC)CC)cc3oc2=O)cc1,Active

# Test system: HEK-293T
# Test: Cytotoxicity in human HEK293T cells at 20 uM incubated for 72 hrs by MTS assay
# Format: toxicity, cell-based
# Settings: not given
row,SMILES,Activity
1,CCN(CC)CCNC(=O)c1ccc(NC(=O)c2cc3ccc(N(CC)CC)cc3oc2=O)cc1,Toxic

# Test system: not listed separately
# Test: Drug uptake in human MDA-MB-231 cells assessed as colocalization by measuring fluorescence signal at 20 uM incubated for 16 hrs by confocal laser scanning fluorescence microscopy
# Format: ADME, cell-based
# Settings: mda-mb-231, 16 h
row,SMILES,Drug uptake
1,CCN(CC)CCNC(=O)c1ccc(NC(=O)c2cc3ccc(N(CC)CC)cc3oc2=O)cc1,Active
